Test results: article PMC6429214, “Design, Synthesis and Biological Evaluation of Isoxazole-Based CK1 Inhibitors Modified with Chiral Pyrrolidine Scaffolds” (Molecules, 2019)
Counter-ions that a name gives are not always drawn.

Legend:
[1] = target: T1, human CK1δ transcription variant 1 (Homo sapiens, UniProt P48730); assay: in-vitro kinase assay CK1δ; assay type: biochemical; details: 10 µM ATP, mean ± SD, n = 3; for remaining activity at 10 µM: read-out: CK1δ Residual Activity [%] at 10 µM ± SD
T1 construct: made in house; own knowledge
Text: Human CK1δ transcription variant 1 (CK1δ TV1_NM_001893.4) has been amplified from the cDNA obtained from HT1080 cell line, using CK1δ_forward-primer: 5′-GGATCCATGGAGCTGAGAGTCGGGAACAG-3′ and CK1δ_reverse primer: 5′-GGATCCTCATCGGTGCACGACAGACTGA-3′. The CK1δ DNA construct was cloned into pSC-A cloning vector (Agilent technologies, Munich, Germany) with BamHI enzyme, to generate plasmids pGEX6-P3-GST-CK1δ TV1 (FP1417). Overexpression and purification of GST-CK1δ TV1 protein has been performed as described before.
(§1) In vitro kinase assays have been performed to both screen, as well as to calculate IC50 values of the compounds for CK1δ and ε. Each reaction was carried out using 2 μCi ^32P-γ-ATP in kinase buffer containing 25 mM Tris-HCl (pH = 7.5), 10 mM MgCl2, 100 µM EDTA, and 10 µM ATP. […] Recombinant human CK1δ transcription variant 1 (expressed and purified as GST fusion protein as described earlier) and human GST-CK1ε (PV3500; Invitrogen) were used as sources of enzyme, while α-casein (C6780; Sigma-Aldrich) was used as substrate. Kinase reactions were incubated for 30 min at 30 °C and then stopped with loading dye (50 mM Tris-HCl (pH = 6.8), 5% (v/v) β-mercaptoethanol (MSH), 10% (v/v) glycerol, 2% (w/v) sodium dodecyl sulfate (SDS), 0.1% (w/v) bromphenol blue). Subsequently, reactions were separated by sodium dodecyl sulfate polyacrylamide gel electrophoresis (SDS-PAGE) and phosphorylated protein bands were visualized on dried gels by autoradiography. The phosphorylated substrate protein bands were excised, and phosphorylation was quantified by Cherenkov counting. Dose-response analyses and calculation of IC50 values were carried out using GraphPad Prism 6 statistical software (San Diego, CA, USA).

human GST-CK1ε = target: T2, human GST-CK1ε (Homo sapiens, UniProt P49674); assay: in-vitro kinase assay CK1ε; assay type: biochemical; details: 10 µM ATP, mean ± SD, n = 3; for remaining activity at 10 µM: read-out: CK1ε Residual Activity [%] at 10 µM ± SD
T2 construct: purchased Invitrogen PV3500
T2 sequence (P49674 whole entry): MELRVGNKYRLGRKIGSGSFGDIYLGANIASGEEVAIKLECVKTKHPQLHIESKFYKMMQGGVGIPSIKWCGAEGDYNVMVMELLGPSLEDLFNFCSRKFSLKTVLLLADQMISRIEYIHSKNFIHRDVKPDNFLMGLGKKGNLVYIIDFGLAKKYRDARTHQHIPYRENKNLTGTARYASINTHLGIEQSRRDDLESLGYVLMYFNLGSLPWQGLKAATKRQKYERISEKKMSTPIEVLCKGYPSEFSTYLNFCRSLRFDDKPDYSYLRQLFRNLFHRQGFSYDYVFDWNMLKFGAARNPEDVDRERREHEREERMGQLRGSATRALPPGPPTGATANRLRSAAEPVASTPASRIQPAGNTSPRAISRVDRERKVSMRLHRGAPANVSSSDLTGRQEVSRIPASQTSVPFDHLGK
Experimental: as §1

HT-29 cells = assay: MTT cell viability assay HT-29; assay type: cell-based, human; details: mean ± SD
Experimental: (§2) The human colon adenocarcinoma cell line HT-29 was grown in McCoy’s 5A medium, whereas MCF7 cells were grown in DMEM medium. All media were supplemented with 10% fetal calf serum (FCS), 100 units/mL penicillin, 100 µg/mL streptomycin and 2 mM glutamine. All cells were grown at 37 °C in a humidified 5% carbon dioxide atmosphere.
(§3) In order to analyze the effects of selected inhibitors on the cell viability of HT-29 and MCF7 cells, MTT assays were performed. 1 × 10^4 cells/well were seeded in 96-well cell culture plates. After 24 h cells were treated with increasing concentrations of the indicated inhibitor compounds, with untreated and DMSO-treated cells as control. After an incubation period of 48 h, 10 µL of MTT solution (5 mg/mL in PBS) were added and cells were incubated for 4 h. MTT-containing medium was carefully removed and 100 µL acidic isopropanol (0.04 N HCl in isopropanol) per well were added. To dissolve formazan crystals, plates were shaken for 30 min on an orbital shaker in the dark. Finally, dissolved crystals were measured spectrophotometrically at 570 nm. All experiments were performed in triplicate with four technical replicates per assay. Results were normalized considering the mean optical density value of control wells as 100%. GraphPad Prism 6 software (San Diego, CA, USA) was used to calculate EC50 values.

MCF-7 cells = assay: MTT cell viability assay MCF-7; assay type: cell-based, human; details: mean ± SD
Experimental: as §2, §3

[2] = MTT cell viability assay HT-29; assay type: cell-based, human; details: human, HT-29 cells, mean ± SD
Experimental: as §2, §3

[3] = MTT cell viability assay MCF-7; assay type: cell-based, human; details: human, MCF-7 cells, mean ± SD
Experimental: as §2, §3

[4] = LC-MS of aqueous solutions with and without PEG; assay type: physicochemical; details: LC-MS over 7 days, not in solutions without PEG
Text: Since all analytical data for the originally employed inhibitors was consistent with the given structures, we postulate that the incorporation of an additional methylene group occurred via spontaneous Pictet-Spengler cyclization during crystallization. In line with this notion, PEG, which has been used in our soaking solutions, is known to generate formaldehyde traces that have been shown in the past to affect the derivatization of both, proteins and ligands. To further corroborate this hypothesis, we examined whether simple exposure of 29d/e to formaldehyde would give rise to the same Pictet-Spengler products 31a/b (Scheme 5). Indeed, when compounds 29d/e were treated with formaldehyde at room temperature 31a/b were formed readily and the obtained spectroscopic data was consistent with the predicted Pictet-Spengler products. In addition, aqueous solutions of 29d and 29e with and without PEG were analyzed by liquid chromatography-mass spectrometry (LC-MS) over a period of 7 days.
LC-MS was performed with a Bruker Esquire ~LC ion trap mass spectrometer (Bremen, Germany) in the positive ion mode (dry gas 9 L/min, nebulizer 35 psi, drying temperature 350 °C) after chromatographic separation using an Agilent 1100 HPLC system (Waldbronn, Germany) with a RP-8 column (Agilent Eclipse XDB-C8, 150 × 4.6 mm, 5 μm) and a 0.1% acetic acid/acetonitrile gradient.

IRAK4 = details: cited from earlier work

Compound: COc1ccc(-c2cc(C(=O)Nc3cc(-c4c(-c5ccc(F)cc5)noc4C(C)C)ccn3)n(C[C@H]3NC[C@H](O)[C@@H]3O)c2)c(OC)c1 [29f]
- IC50 [1]: 0.037 ± 0.004 µM
- remaining activity at 10 µM ([1]; 10 µM compound): 2.8 ± 0.5%
- IC50 (human GST-CK1ε): 0.1 ± 0.014 µM
- remaining activity at 10 µM (human GST-CK1ε; 10 µM compound): 9.7 ± 1.6%
- viability at 5 µM (HT-29 cells; Homo sapiens, HT-29, 48 h, 5 µM): 50 ± 10%
- viability at 10 µM (HT-29 cells; Homo sapiens, HT-29, 48 h, 10 µM): 25 ± 5%
- viability at 20 µM (HT-29 cells; Homo sapiens, HT-29, 48 h, 20 µM): 9.4 ± 3%
- EC50 (HT-29 cells; Homo sapiens, HT-29, 48 h): 5.4 ± 0.4 µM
- viability at 5 µM (MCF-7 cells; Homo sapiens, MCF7, 48 h, 5 µM): 87 ± 5%
- viability at 10 µM (MCF-7 cells; Homo sapiens, MCF7, 48 h, 10 µM): 33 ± 7%
- viability at 20 µM (MCF-7 cells; Homo sapiens, MCF7, 48 h, 20 µM): 3.9 ± 0.2%
- EC50 (MCF-7 cells; Homo sapiens, MCF7, 48 h): 9.6 ± 0.8 µM

Compound: COc1ccc(-c2cc(C(=O)Nc3cc(-c4c(-c5ccc(F)cc5)noc4C(C)C)ccn3)n3c2CN2C[C@H](O)[C@H](O)[C@H]2C3)cc1 [31a, (1R,2S,10aR)-N-{4-[3-(4-Fluorophenyl)-5-isopropylisoxazol-4-yl]pyridin-2-yl}-1,2-dihydroxy-6-(4-methoxyphenyl)-2,3,10,10a-tetrahydro-1H,5H-dipyrrolo[1,2-a:1’,2’-d]pyrazine-8-carboxamide]
- IC50 [1]: 0.011 ± 0.001 µM
- IC50 (human GST-CK1ε): 0.056 ± 0.005 µM
- EC50 (HT-29 cells; 48 h): 1.1 ± 0.1 µM
- EC50 (HT-29 cells; Homo sapiens, HT-29, 48 h): < 2 µM
- EC50 (MCF-7 cells; 48 h): 1.3 ± 0.2 µM
- EC50 (MCF-7 cells; Homo sapiens, MCF7, 48 h): < 2 µM

Compound: COc1ccc(-c2cc(C(=O)Nc3cc(-c4c(-c5ccc(F)cc5)noc4C(C)C)ccn3)n(C)c2)c(OC)c1 [28b, 4-(2,4-Dimethoxyphenyl)-N-{4-[3-(4-fluorophenyl)-5-isopropylisoxazol-4-yl]pyridin-2-yl}-1-methyl-1H-pyrrole-2-carboxamide]
- remaining activity at 10 µM ([1]; 10 µM compound): 48 ± 4%
- remaining activity at 10 µM (human GST-CK1ε; 10 µM compound): 47 ± 11%
- viability at 48 h, 5 µM [2]: 94 ± 23%
- viability at 48 h, 10 µM [2]: 59 ± 14%
- viability at 48 h, 20 µM [2]: 52 ± 10%
- viability at 48 h, 5 µM [3]: 89 ± 13%
- viability at 48 h, 10 µM [3]: 84 ± 11%
- viability at 48 h, 20 µM [3]: 79 ± 12%

Compound: CC(C)c1onc(-c2ccc(F)cc2)c1-c1ccnc(NC(=O)c2cccn2C[C@H]2NC[C@H](O)[C@@H]2O)c1 [29c, (2R,3R,4S)-2-{[2-({4-[3-(4-Fluorophenyl)-5-isopropylisoxazol-4-yl]pyridin-2-yl}carbamoyl)-1H-pyrrol-1-yl]methyl}-3,4-dihydroxypyrrolidin-1-ium trifluoroacetate]
- IC50 [1]: 0.45 ± 0.07 µM
- remaining activity at 10 µM ([1]; 10 µM compound): 7.7 ± 0.2%
- IC50 (human GST-CK1ε): 1.5 ± 0.3 µM
- remaining activity at 10 µM (human GST-CK1ε; 10 µM compound): 18 ± 1%
- viability at 48 h, 5 µM [2]: 80 ± 16%
- viability at 48 h, 10 µM [2]: 78 ± 11%
- EC50 (HT-29 cells; Homo sapiens, HT-29, 48 h): 24 ± 6 µM
- viability at 48 h, 5 µM [3]: 90 ± 10%
- viability at 48 h, 10 µM [3]: 81 ± 5%
- EC50 (MCF-7 cells; Homo sapiens, MCF7, 48 h): 39 ± 12 µM

Compound: COc1ccc(-c2cc(C(=O)Nc3cc(-c4c(-c5ccc(F)cc5)noc4C(C)C)ccn3)n(CC3NCC(O)C3O)c2)cc1 (centres unmarked) (as salt: trifluoroacetate) [29d]
- melting point: 191 to 193 °C

Compound: COc1ccc(-c2cc(C(=O)Nc3cc(-c4c(-c5ccc(F)cc5)noc4C(C)C)ccn3)n(CC3NCC(O)C3O)c2)cc1 (centres unmarked) [29e]
- IC50 [1]: 0.047 ± 0.004 µM
- CK1δ Residual Activity [%] at 10 µM ± SD ([1]; 10 µM compound): 3.4 ± 0.7%
- IC50 (human GST-CK1ε): 0.063 ± 0.009 µM
- CK1ε Residual Activity [%] at 10 µM ± SD (human GST-CK1ε; 10 µM compound): 14 ± 3%
- formation of Pictet-Spengler products in aqueous solution with PEG [4]: significant product formation
- HT-29 Cell Viability [%] 5 µM (HT-29 cells; 5 µM, 48 h): 75 ± 13%
- HT-29 Cell Viability [%] 10 µM (HT-29 cells; 10 µM, 48 h): 42 ± 10%
- HT-29 Cell Viability [%] 20 µM (HT-29 cells; 20 µM, 48 h): 11 ± 3%
- EC50 (HT-29 cells; 48 h): 8.8 ± 0.8 µM
- MCF-7 Cell Viability [%] 5 µM (MCF-7 cells; 5 µM, 48 h): 90 ± 27%
- MCF-7 Cell Viability [%] 10 µM (MCF-7 cells; 10 µM, 48 h): 58 ± 18%
- MCF-7 Cell Viability [%] 20 µM (MCF-7 cells; 20 µM, 48 h): 8.0 ± 3.4%
- EC50 (MCF-7 cells; 48 h): 10 ± 2 µM

Compound: COc1ccc(-c2cc(C(=O)Nc3cc(-c4c(-c5ccc(F)cc5)noc4C(C)C)ccn3)n3c2CN2C[C@@H](O)[C@@H](O)[C@@H]2C3)cc1 [31b, (1S,2R,10aS)-N-{4-[3-(4-Fluorophenyl)-5-isopropylisoxazol-4-yl]pyridin-2-yl}-1,2-dihydroxy-6-(4-methoxyphenyl)-2,3,10,10a-tetrahydro-1H,5H-dipyrrolo[1,2-a:1’,2’-d]pyrazine-8-carboxamide]
- IC50 [1]: 0.024 ± 0.004 µM
- IC50 (human GST-CK1ε): 0.196 ± 0.026 µM
- EC50 (HT-29 cells; 48 h): 1.4 ± 0.2 µM
- EC50 (HT-29 cells; Homo sapiens, HT-29, 48 h): < 2 µM
- EC50 (MCF-7 cells; 48 h): 1.9 ± 0.3 µM
- EC50 (MCF-7 cells; Homo sapiens, MCF7, 48 h): < 2 µM

Compound: COc1ccc(-c2cc(C(=O)Nc3cc(-c4c(-c5ccc(F)cc5)noc4C(C)C)ccn3)n(CC3NCC(O)C3O)c2)cc1 (centres unmarked) (as salt: trifluoroacetate) [29e]
- melting point: 188 to 191 °C

Compound: COc1ccc(-c2cc(C(=O)Nc3cc(-c4c(-c5ccc(F)cc5)noc4C(C)C)ccn3)n(C)c2)cc1 [28a, N-{4-[3-(4-Fluorophenyl)-5-isopropylisoxazol-4-yl]pyridin-2-yl}-4-(4-methoxyphenyl)-1-methyl-1H-pyrrole-2-carboxamide]
- melting point: 157 to 158 °C
- remaining activity at 10 µM ([1]; 10 µM compound): 48 ± 7%
- remaining activity at 10 µM (human GST-CK1ε; 10 µM compound): 70 ± 21%
- viability at 48 h, 5 µM [2]: 111 ± 19%
- viability at 48 h, 10 µM [2]: 98 ± 22%
- viability at 48 h, 20 µM [2]: 78 ± 10%
- viability at 48 h, 5 µM [3]: 103 ± 16%
- viability at 48 h, 10 µM [3]: 88 ± 9%
- viability at 48 h, 20 µM [3]: 54 ± 5%

Compound: Cc1cc(Nc2ncc(-c3nc4ccncc4s3)c(N[C@@H]3C[C@H](CO)[C@@H](O)[C@H]3O)n2)cc(C)n1 [compound 4]
- IC50 (IRAK4): 0.3 nM
